Where two headings read alike, the source gives them in different places.
Key:
[1] = test system: Daudi cell line (AID positive); assay: Primary screening cell killing assay (Cell-Titer Glo, Day 7); format: cell-based; conditions: Homo sapiens, 168 h; Daudi cells (AID positive), cell death on Day 7; read-out: AID+ EC50
Protocol: (§1) Primary screening was a phenotypic screen that utilized the synthetic lethal interaction between AID and RAD51 to identify compounds that were both potent and on target. AID expressing cells are dependent upon RAD51 for survival; inhibiting RAD51 in AID positive cells results in a cytotoxic effect.
(§2) The first step was to set up a cell killing assay in the Daudi cell line (AID positive). A 96 well u-bottom plate was prepared by writing the experiment number, plate number, date and initials in the top right corner of the plate lid. With a sterile 300 ml reservoir, and 25 ml serological pipette, evaporation buffer media was pipetted into reservoir in 25 ml increments. Using the liquid handler, 150 ul of evaporation buffer media was pipetted from reservoir into rows A and H, and Columns 1 and 12 of the 96 well u-bottom plate. Cell cultures were counted to obtain the density of cells per ml, and the culture viability. The cell density information was used to obtain 1,000,000 cells from culture using a 5 mL serological pipette into an epi tube. The cell density information from the culture was used to calculate the number of cells and volume of media needed for the assay to seed 1250 cells in 130 ul of media per available culture well in the 96 well u-bottom plate. Rows B through F were used for cells (50 wells in total), with row G left for an empty media control. The calculation was overestimated by 10 mL to account for the dead volume in the 300 ml reservoir. Once the media volume was calculated, the appropriate volume of media was pipetted in 25 mL increments into the 250 mL bottle using a 25 mL serological pipette. The 250 ml bottle was capped tightly, and placed into a 37° C. water bath for 2 minutes. While the culture media was warming, 10 mL of fresh media was pipetted from the 500 mL culture media bottle into a sterile 25 mL reservoir. Using the Eppendorf multichannel pipette, 130 ul of media was piptted from the 25 mL reservoir into row G of the 96 well u-bottom plate. Once the 250 mL bottle of media was warmed, the volume of culture needed was pipetted into the bottle, and mixed gently with a 25 mL serological pipette as to not create bubbles, and then the contents of the bottle were pipetted into a new 300 mL reservoir. Using the liquid handler, 130 ul of culture was pipetted from the 300 mL reservoir into rows B through F of the 96 well u-bottom plate. Once the culture was added, the plate was placed into a 37° C. incubator until the compound master plate was prepared for use.
(§3) Two 96 well u-bottom plates were prepared by writing the master plate name in the upper right corner of the plate lid. Labeling one DMSO master and the other Media Master. The compounds of interest were obtained from the laboratory freezer, and placed into a 25 well storage box with a lid, and set the box aside. The compounds were vortexed after thawing but before use. Using an automatic multichannel pipette, 20 ul of 100% DMSO was pipetted into wells B3-B11 through G3-G11 of the DMSO master plate. For each compound on the master plate, 50 ul of the compound were pipetted in the appropriate well of row 2 (reference plate map to determine appropriate well). A serial dilution was prepared beginning by aspirating 20 ul from row 2 and mixing with row 3, repeating until row 11 was reached. Using the liquid handler, 194 ul of Daudi media was dispensed into wells B2-B11 through G2-G11 of the Media master plate. Using the liquid handler, 6 ul from the DMSO master plate was aspirated and dispensed into the media master plate, mixing 100 ul twice.
Compounds from master plate were then added to the culture plate. The culture plates were removed from the incubator, and set inside the biosafety cabinet. Using a liquid handler, 20 ul from wells B2 to B11 through G2 to G11 of master plate were aspirated, and dispensed into wells B2 to B11 through G2 to G11 of culture plate. This set was continued with each culture plate. […]

[2] = Bi-directional Caco-2 permeability; format: in vitro ADME; conditions: human; for Papp A→B / Papp B→A: Caco-2, 37 C, up to 90 minutes; for Papp A→B: apical to basolateral, read-out: AB Papp (cm/sec × 10^6); for Papp B→A: basolateral to apical, read-out: BA Papp (cm/sec × 10^6); for efflux ratio: Caco-2 efflux ratio, read-out: BA/AB Ratio
Protocol: Bi-directional Caco-2 permeability was assayed. Caco-2 cells were seeded onto permeable polycarbonate supports and allowed to differentiate for about 3 weeks prior to being used in the assays. The cells were then exposed to the compounds from either the apical or basolateral sides and incubated at 37 C for up to 90 minutes under light agitation. Compound transport was then measured using LC/MS/MS analysis at 30, 60, and 90 minutes.

[3] = test system: WI-38 cells (AID negative); assay: Primary screening cell killing assay repeated in AID negative cells; format: cell-based, Human; conditions: Homo sapiens; WI-38 cells (AID negative); read-out: AID− EC50
Protocol: as §1
Percent cell death and EC50 values were calculated by comparing the cell viability of the compound treated wells to the non-treated wells. Normalized RLU values were obtained by subtracting the media well values from each of the wells in the same column, and then dividing that value by the DMSO treated cells values. The percent kill was then calculated by subtracting the normalized RLU value from 1 and multiplying by 100. The average normalized percent kill value and standard error of the mean was then calculated. The kill values were then inputted into Prism with the corresponding standard errors. In Prism a non-linear regression line was plotted with the data points using a semi-log scale, and the EC50 value was calculated.
The activity of the claimed compounds was measured in a variety of cell lines with different expression levels of activation induced cytidine deaminase (AICDA). The potency assay was repeated in all of the listed cell lines and the EC50 values recorded.

[4] = Pharmacokinetic (PK) study; format: in vivo, Rat; conditions: po @ 80 mg/kg (30% PEG400, 10% Vitamin E TPGS in water)
Protocol: PK studies in mice were used to determine the fate of the compounds in a whole organism. Rats were treated with the compounds either orally of via IV at the indicated doses and followed for up to 24 hours. Plasma samples were taken at different time points and analyzed by LC-MS.

[5] = Human liver microsome stability; format: in vitro ADME; conditions: percentage of hepatic blood flow
Protocol: The stability of the claimed compounds was determined in the presences of human liver microsomes. The compounds were incubated with the microsomes at 37° C. for 45 minutes. Samples were analyzed using LC-MS/MS. Data analysis included half-life, clearance rate, and the percentage of hepatic blood flow (% QH) for each of the compounds in the different species.

[6] = test system: ARPE19/HPV16 (HPV Immortalized RPE); assay: Cell line screen (potency assay); format: cell-based; conditions: ARPE-19, AICDA expression Negative
Protocol: as §2, §3
Compounds from master plate were then added to the culture plate. The culture plates were removed from the incubator, and set inside the biosafety cabinet. Using a liquid handler, 20 ul from wells B2 to B11 through G2 to G11 of master plate were aspirated, and dispensed into wells B2 to B11 through G2 to G11 of culture plate. This set was continued with each culture plate. Once the culture plates acquired their 20 ul of compound dilutions, they were placed back into the incubator, until their reads on Day 7 of experiment. Cell death was measured on Day 7 of the experiment using Cell-Titer Glo and a Promega Plate reader. […]

[7] = Caco-2, apical to basolateral, read-out: AB Recovery %
[8] = Caco-2, basolateral to apical, read-out: BA Recovery %

Row | Structure (SMILES) | EC50 [1] [nM] | recovery at 90 min [2, 7] [%] | recovery at 90 min [2, 8] [%] | Papp A→B [2] [×10⁻⁶ cm/s] | Papp B→A [2] [×10⁻⁶ cm/s] | efflux ratio [2] | EC50 [3] [nM] | F (%) @ 5 mg/kg ([4]; Rat Female) [%] | F (%) @ 5 mg/kg ([4]; Rat Male) [%] | Human Liver Microsome Stability % QH [5] [%] | EC50 [6] [nM]
1 | CC(C)OC(=O)NC1CCC(c2nc(F)c(-c3ccc(NC(=O)NCc4ccccc4)cc3S(=O)(=O)NC(C)(C)C)s2)CC1 (stereo not drawn) [Compound 57] | ≤ 100 | 61.9 | 86.8 | 1.3 | 3.5 | 2.7 | > 1000 | – | – | – | –
2 | CC(C)OC(=O)NC1CCC(c2ncc(-c3ccc(NC(=O)NCc4cccc(F)c4)cc3S(=O)(=O)NC(C)(C)C)s2)CC1 (stereo not drawn) [Compound 27] | ≤ 100 | 92 | 107 | – | – | – | > 1000 | – | – | – | –
3 | CC(C)OC(=O)N[C@H]1CC[C@H](c2ncc(-c3ccc(NC(=O)NCc4ccccc4)cc3S(=O)(=O)NC(C)(C)C)s2)CC1 [Compound 66A] | – | – | – | – | – | – | – | 3.31 | 2.55 | 49.6 | > 10000
4 | CC(C)OC(=O)NC1CCC(c2ncc(-c3ccc(NC(=O)N[C@H](C)c4ccccn4)cc3S(=O)(=O)NC(C)(C)C)s2)CC1 (stereo partly drawn) [Compound 30] | ≤ 100 | 79.8 | 116 | – | – | – | > 1000 | – | – | – | –
5 | CC(C)(C)NS(=O)(=O)c1cc(NC(=O)NCc2ccccc2)ccc1-c1cnc(C2CCC(NC(=O)OC(C)(C)C)CC2)s1 (stereo not drawn) [Compound 10] | ≤ 100 | 59.9 | 87.2 | 1.2 | 1.5 | 1.3 | > 1000 | – | – | – | –
6 | CC(C)(C)NS(=O)(=O)c1cc(NC(=O)NCc2ccccc2)ccc1-c1cnc(C2CCC(NC(=O)OC3COC3)CC2)s1 (stereo not drawn) [Compound 47] | ≤ 100 | 65.3 | 80.7 | 8.7 | 12.4 | 1.4 | > 1000 | – | – | – | –
